Data as given in patent US9732087B2, “Diamino-pyridine, pyrimidine, and pyridazine modulators of the histamine H4 receptor” (JANSSEN PHARMACEUTICA NV, priority 2008, dated 2017).
Where a name gives a salt, the structure may show the parent alone. Read-outs that look alike come from different tables or passages of the source.

Biological target: human H4 receptor (Homo sapiens (Human), UniProt Q9H3N8)
Assay: Binding assay on recombinant human histamine H4 receptor ([3H]histamine competition, SK-N-MC cell membranes)
Settings: [3H]histamine 10 nM, average of results
Procedure: Binding Assay on Recombinant Human Histamine H4Receptor
Cell pellets from SK-N-MC cells stably or transiently transfected with human H4 receptor (NCBI accession No. AF312230) were used for the binding assays. Cell pellets were homogenized in 50 mM Tris/5 mM EDTA buffer and supernatants from an 800 g spin were collected and recentrifuged at 30,000 g for 30 min. Pellets were rehomogenized in 50 mM Tris/5 mM EDTA buffer. […] Membranes were harvested by rapid filtration using the 96 well Brandel system (Table 1, Brandel) or a cell harvester (Table 1, Cell Harvester) using a Whatman GF/C filter or filter plates treated with 0.5% polyethylenimine (PEI), and washed 4 times with ice-cold 50 mM Tris/5 mM EDTA buffer. Filters were then dried, mixed with scintillant and radioactive counts were determined. […] Where activity is shown as greater than (>) a particular value, the value is the highest concentration tested.

[1] = membranes harvested with cell harvester, read-out: Cell Harvester Ki
[2] = membranes harvested with 96 well Brandel system, read-out: Brandel Ki

Sequence of human H4 receptor (Q9H3N8 whole entry): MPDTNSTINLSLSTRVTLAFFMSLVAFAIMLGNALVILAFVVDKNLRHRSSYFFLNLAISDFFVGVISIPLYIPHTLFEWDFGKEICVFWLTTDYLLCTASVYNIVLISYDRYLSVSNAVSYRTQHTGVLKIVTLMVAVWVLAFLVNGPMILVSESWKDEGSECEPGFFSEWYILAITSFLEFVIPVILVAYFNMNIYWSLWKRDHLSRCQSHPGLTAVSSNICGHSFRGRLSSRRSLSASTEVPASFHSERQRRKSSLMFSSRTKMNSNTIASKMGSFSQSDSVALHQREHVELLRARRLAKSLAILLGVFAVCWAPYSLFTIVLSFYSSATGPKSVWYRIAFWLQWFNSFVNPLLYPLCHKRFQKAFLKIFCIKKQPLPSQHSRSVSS

| Compound | Ki [1] | Ki [2] |
| --- | --- | --- |
| CN[C@@H]1CCN(c2ccnc(NC34CC5CC(CC(C5)C3)C4)c2)C1 [Example 218, Adamantan-1-yl-[4-(3R)-(3-methylamino-pyrrolidin-1-yl)-pyridin-2-yl]-amine] | 2.62 nM | – |
| c1cc(N2C[C@H]3CCN[C@H]3C2)cc(NC2CCOCC2)n1 [Example 277, 4-[(3aR,6aR)-Hexahydropyrrolo[3,4-b]pyrrol-5(1H)-yl]-N-(tetrahydro-2H-pyran-4-yl)pyridin-2-amine] | 97 nM | – |
| CC(C)(C)CNc1cc(N2CC(N)C2)cnn1 [Example 323, 5-(3-Aminoazetidin-1-yl)-N-(2,2-dimethylpropyl)pyridazin-3-amine] | > 10000 nM | – |
| CN[C@@H]1CCN(c2ccnc(NCC(C)(C)C)c2)C1 [Example 41, N-(2,2-Dimethylpropyl)-4-[(3R)-3-(methylamino)pyrrolidin-1-yl]pyridin-2-amine] | 2.2 nM | – |
| CN[C@H]1CCN(c2cnnc(NCC(C)(C)C)c2)C1 [Example 385, N-(2,2-Dimethylpropyl)-5-[(3S)-3-(methylamino)pyrrolidin-1-yl]pyridazin-3-amine] | 259 nM | – |
| c1cc(N2CCCNCC2)cc(NC2CC3CCC2C3)n1 (stereo not shown) [Example 265, N-Bicyclo[2.2.1]hept-2-yl-4-(1,4-diazepan-1-yl)pyridin-2-amine] | 1.71 nM | – |
| N[C@H]1CCN(c2ccnc(NCc3ccccn3)n2)C1 [Example 118, 4-[(3S)-3-Aminopyrrolidin-1-yl]-N-(pyridin-2-ylmethyl)pyrimidin-2-amine] | > 10000 nM | – |
| CNC1CN(c2ccnc(NCc3ccc(F)cc3)c2)C1 [Example 295, N-(4-Fluorobenzyl)-4-[3-(methylamino)azeidin-1-yl]pyridin-2-amine] | 163 nM | – |
| CN[C@H]1CCN(c2ccnc(NC3C[C@H]4C[C@@H](C3C)C4(C)C)c2)C1 (stereo partly drawn) [Example 230, 4-[(3S)-3-(Methylamino)pyrrolidin-1-yl]-N-[(1S,5R)-2,6,6-trimethylbicyclo[3.1.1]hept-3-yl]pyridin-2-amine] | 276 nM | – |
| C[C@@H](Nc1cc(N2CCN(C)CC2)ccn1)C1CCCCC1 [Example 214, N-[(1R)-1-Cyclohexylethyl]-4-(4-methylpiperazin-1-yl)pyridin-2-amine] | 416 nM | – |
| N[C@@H]1CCN(c2ccnc(NC3CCCCC3)c2)C1 [Example 274, 4-[(3R)-3-Aminopyrrolidin-1-yl]-N-cyclohexylpyridin-2-amine] | 10.6 nM | – |
| COc1ccc(CNc2cc(N3CC[C@@H](N)C3)cnn2)cc1 [Example 341, 5-[(3R)-3-Aminopyrrolidin-1-yl]-N-(4-methoxybenzyl)pyridazin-3-amine] | > 10000 nM | – |
| NC1CN(c2ccnc(NC3CC3)n2)C1 [Example 91, 4-(3-Aminoazetidin-1-yl)-N-cyclopropylpyrimidin-2-amine] | 182 nM | – |
| CN[C@@H]1CCN(c2cnnc(NC3CCCCC3)c2)C1 [Example 98, N-Cyclohexyl-5-[(3R)-3-(methylamino)pyrrolidin-1-yl]pyridazin-3-amine] | 4.8 nM | 4.8 nM |
| c1nnc(NCC2CCCC2)cc1N1CCNCC1 [Example 363, N-(Cyclopentylmethyl)-5-piperazin-1-ylpyridazin-3-amine] | 4730 nM | – |
| CN(CCN)c1cnnc(NC2CC3CCC2C3)c1 (stereo not shown) [Example 302, N^5-(2-Amino-ethyl)-N^3-bicyclo[2.2.1]hept-2yl-N^5-methylpyridazine-3,5-diamine] | 98.1 nM | – |
| CC(C)(O)CNc1cc(N2CC[C@@H](N)C2)ccn1 [Example 279, 1-({4-[(3R)-3-Aminopyrrolidin-1-yl]pyridin-2-yl}amino)-2-methylpropan-2-ol] | 276 nM | – |
| CN1CCN(c2ccnc(NCC3CCCCC3)c2)CC1 [Example 212, N-(Cyclohexylmethyl)-4-(4-methylpiperazin-1-yl)pyridin-2-amine] | 275 nM | – |
| CNC1CN(c2cnnc(NCC3CCCC3)c2)C1 [Example 370, N-(Cyclopentylmethyl)-5-[3-(methylamino)azetidin-1-yl]pyridazin-3-amine] | 224 nM | – |
| c1ccc(Nc2cc(N3CCNCC3)ccn2)cc1 [Example 38, N-Phenyl-4-piperazin-1-ylpyridin-2-amine] | 275 nM | – |
| c1nnc(NC2CC2)cc1N1C[C@H]2CCN[C@H]2C1 [Example 309, N-Cyclopropyl-5-[(3aR,6aR)-hexahydropyrrolo[3,4-b]pyrrol-5(1H)-yl]pyridazin-3-amine] | 1600 nM | – |
| CN[C@H]1CCN(c2cnnc(NCCOC)c2)C1 [Example 376, N-(2-Methoxyethyl)-5-[(3S)-3-(methylamino)pyrrolidin-1-yl]pyridazin-3-amine] | > 10000 nM | – |

| Compound | Ki [1] | Ki [2] |
| --- | --- | --- |
| CN1CCN(c2ccnc(NCCc3ccccc3)n2)CC1 [Example 173, 4-(4-Methylpiperazin-1-yl)-N-(2-phenylethyl)pyrimidin-2-amine] | 745 nM | – |
| CN[C@@H]1CCN(c2cnnc(NCC3CCCCC3)c2)C1 [Example 391, N-(Cyclohexylmethyl)-5-[(3R)-3-(methylamino)pyrrolidin-1-yl]pyridazin-3-amine] | 36.5 nM | – |
| CC(C)(CO)CNc1cc(N2CC[C@@H](N)C2)cnn1 [Example 350, 3-({5-[(3R)-3-Aminopyrrolidin-1-yl]pyridazin-3-yl}amino)-2,2-dimethylpropan-1-ol] | 1720 nM | – |
| CN[C@H]1CCN(c2cnnc(NCC3CCC4CC3C4(C)C)c2)C1 (stereo partly drawn) [Example 394, N-[(6,6-Dimethylbicyclo[3.1.1]hept-2-yl)methyl]-5-[(3S)-3-(methylamino)pyrrolidin-1-yl]pyridazin-3-amine] | 634 nM | – |
| CC(C)(C)Nc1cc(N2C[C@H]3CCN[C@H]3C2)ccn1 [Example 288, N-tert-Butyl-4-[(3aR,6aR)-hexahydropyrrolo[3,4-b]pyrrol-5(1H)-yl]pyridin-2-amine] | 39.5 nM | – |
| CC(C)CNc1cc(N2CCNCC2)ccn1 [Example 19, N-(2-Methylpropyl)-4-piperazin-1-ylpyridin-2-amine dihydrochloride] | – | 45.3 nM |
| CN[C@@H]1CCN(c2cnnc(N[C@H](C)c3ccccc3)c2)C1 [Example 401, 5-[(3R)-3-(Methylamino)pyrrolidin-1-yl]-N-[(1R)-1-phenylethyl]pyridazin-3-amine] | 79.3 nM | – |
| CNC1CN(c2ccnc(NC3C[C@H]4C[C@@H](C3C)C4(C)C)c2)C1 (stereo partly drawn) [Example 284, 4-[3-(Methylamino)azetidin-1-yl]-N-[(1S,5R)-2,6,6-trimethylbicyclo[3.1.1]hept-3-yl]pyridin-2-amine] | 42.3 nM | – |
| C[C@@H]1[C@@H](Nc2nccc(N3CC[C@@H](N)C3)n2)C[C@H]2C[C@@H]1C2(C)C [Example 116, 4-[(3R)-3-Aminopyrrolidin-1-yl]-N-[(1S,2S,3S,5R)-2,6,6-trimethylbicyclo[3.1.1]hept-3-yl]pyrimidin-2-amine] | 7.53 nM | – |
| Cc1ccc(CNc2cc(N3CC[C@@H](N)C3)cnn2)cc1 [Example 343, 5-[(3R)-3-Aminopyrrolidin-1-yl]-N-(4-methylbenzyl)pyridazin-3-amine] | > 10000 nM | – |
| NC1CN(c2ccnc(NC3CC4CCC3C4)n2)C1 (stereo not shown) [Example 87, 4-(3-Aminoazetidin-1-yl)-N-bicyclo[2.2.1]hept-2-ylpyrimidin-2-amine] | 33.7 nM | – |
| CN1CCN(c2ccnc(NC3CC4CCC3C4)n2)CC1 (stereo not shown) [Example 44, N-[Bicyclo[2.2.1]hept-2-yl]-4-(4-methylpiperazin-1-yl)pyrimidin-2-amine] | 85.7 nM | 31.5 nM |
| CN[C@@H]1CCN(c2cnnc(NCC3CC4CCC3C4)c2)C1 (stereo partly drawn) [Example 375, N-(Bicyclo[2.2.1]hept-2-ylmethyl)-5-[(3R)-3-(methylamino)pyrrolidin-1-yl]pyridazin-3-amine] | 66.8 nM | – |
| N[C@@H]1CCN(c2ccnc(NCCCO)n2)C1 [Example 154, 3-({4-[(3R)-3-Aminopyrrolidin-1-yl]pyrimidin-2-yl}amino)propan-1-ol] | 204 nM | – |
| CC(C)Nc1cc(N2CC[C@@H](N)C2)ccn1 [Example 13, 4-[(3R)-3-Aminopyrrolidin-1-yl]-N-(1-methylethyl)pyridin-2-amine] | 26.2 nM | – |
| C[C@@H](Nc1cc(N2C[C@H]3CCN[C@H]3C2)ccn1)C1CCCCC1 [Example 271, N-[(1R)-1-Cyclohexylethyl]-4-[(3aR,6aR)-hexahydropyrrolo[3,4-b]pyrrol-5(1H)-yl]pyridin-2-amine] | 189 nM | – |
| c1cc(N2CCNCC2)nc(NC[C@H]2CCCO2)n1 [Example 69, (R)-(4-Piperazin-1-yl-pyrimidin-2-yl)-(tetrahydro-furan-2-ylmethyl)-amine] | > 10000 nM | – |
| CCCCNc1cc(N2CCNCC2)cnn1 [Example 356, N-Butyl-5-piperazin-1-ylpyridazin-3-amine] | 1600 nM | – |
| Fc1ccc(CNc2cc(N3CCNCC3)ccn2)cc1 [Example 40, N-(4-Fluorobenzyl)-4-piperazin-1-ylpyridin-2-amine] | 790 nM | – |
| N[C@@H]1CCN(c2cnnc(NC3CCCC3)c2)C1 [Example 368, 5-[(3R)-3-Aminopyrrolidin-1-yl]-N-cyclopentylpyridazin-3-amine] | 290 nM | – |
| CN1CCN(c2ccnc(NC[C@]34C[C@H]5C[C@H](C[C@H](C5)C3)C4)c2)CC1 [Example 255, Adamantan-1-ylmethyl-[4-(4-methyl-piperazin-1-yl)-pyridin-2-yl]amine] | 1940 nM | – |
| CC(C)(C)CNc1cc(N2CCCNCC2)cnn1 [Example 307, 5-(1,4-Diazepan-1-y1)-N-(2,2-dimethylpropyl)pyridazin-3-amine] | 536 nM | – |
